Test results as given in patent US4684664A, “Derivatives of β-(4-isocyano-1,2,3,4-diepoxycyclopentyl) acrylic acid” (Kureha Kagaku Kogyo Kabushiki Kaisha, priority 1984, dated 1987).
Values after ≈ are worked out from the molar mass of the structure shown.

Key:
Type in all cases: cell-based
[1] = test system: Enterobacter cloacae 963; assay: Antibacterial activity, agar-dilution MIC, organism No. 24; conditions: Enterobacter cloacae, 963; Organism No. 24, bouillon-agar; read-out: Minimum Inhibitory Concentration
Description: (§1) Agar-dilution method was used for determination of the antibacterial activity and antifungal activity while using bouillon-agar culture medium, and the minimum inhibitory concentration of the specimen was expressed by μg/ml of the culture medium.

[2] = test system: Proteus morganii IFO 3848; assay: Antibacterial activity, agar-dilution MIC, organism No. 18; conditions: Morganella morganii, IFO3848; Organism No. 18, bouillon-agar; read-out: Minimum Inhibitory Concentration
Description: as §1

[3] = test system: Proteus vulgaris OX-19; assay: Antibacterial activity, agar-dilution MIC, organism No. 20; conditions: Proteus vulgaris, OX19; Organism No. 20, bouillon-agar; read-out: Minimum Inhibitory Concentration
Description: as §1

[4] = test system: Proteus rettgeri IFO 3850; assay: Antibacterial activity, agar-dilution MIC, organism No. 22; conditions: Providencia rettgeri, IFO3850; Organism No. 22, bouillon-agar; read-out: Minimum Inhibitory Concentration
Description: as §1

[5] = test system: Pseudomonas aeruginosa NCTC 10490; assay: Antibacterial activity, agar-dilution MIC, organism No. 16; conditions: Pseudomonas aeruginosa, NCTC10490; Organism No. 16, bouillon-agar; read-out: Minimum Inhibitory Concentration
Description: as §1

[6] = test system: Staphylococcus aureus FDA 209PJc-1; assay: Antibacterial activity, agar-dilution MIC, organism No. 1; conditions: Staphylococcus aureus, FDA209PJC1; Organism No. 1, bouillon-agar; read-out: Minimum Inhibitory Concentration
Description: as §1

[7] = test system: Enterobacter aerogenes ATCC 13048; assay: Antibacterial activity, agar-dilution MIC, organism No. 23; conditions: Klebsiella aerogenes, ATCC13048; Organism No. 23, bouillon-agar; read-out: Minimum Inhibitory Concentration
Description: as §1

[8] = test system: Salmonella enteritidis G 14; assay: Antibacterial activity, agar-dilution MIC, organism No. 12; conditions: Salmonella enterica, ENTERITIDIS; Organism No. 12, bouillon-agar; read-out: Minimum Inhibitory Concentration
Description: as §1

[9] = test system: Micrococcus luteus ATCC 9341; assay: Antibacterial activity, agar-dilution MIC, organism No. 25; conditions: Micrococcus luteus, ATCC9341; Organism No. 25, bouillon-agar; read-out: Minimum Inhibitory Concentration
Description: as §1

[10] = test system: Klebsiella pneumoniae PCI-602; assay: Antibacterial activity, agar-dilution MIC, organism No. 7; conditions: Klebsiella pneumoniae, PCI602; Organism No. 7, bouillon-agar; read-out: Minimum Inhibitory Concentration
Description: as §1

[11] = test system: Pseudomonas aeruginosa PAO 1; assay: Antibacterial activity, agar-dilution MIC, organism No. 17; conditions: Pseudomonas aeruginosa, PAO1; Organism No. 17, bouillon-agar; read-out: Minimum Inhibitory Concentration
Description: as §1

[12] = test system: Salmonella paratyphi-A 1015; assay: Antibacterial activity, agar-dilution MIC, organism No. 10; conditions: Salmonella enterica, PARATYPHI, read-out: Minimum Inhibitory Concentration
Description: as §1

[13] = test system: Streptococcus pyogenes IFO 3340; assay: Antibacterial activity, agar-dilution MIC, organism No. 26; conditions: Streptococcus pyogenes, IFO3340; Organism No. 26, bouillon-agar; read-out: Minimum Inhibitory Concentration
Description: as §1

[14] = test system: Staphylococcus aureus Terajima; assay: Antibacterial activity, agar-dilution MIC, organism No. 2; conditions: Staphylococcus aureus; Organism No. 2, bouillon-agar; read-out: Minimum Inhibitory Concentration
Description: as §1

[15] = test system: Aspergillus niger IFO 6342; assay: Antifungal activity, agar-dilution MIC, organism No. 30; conditions: Aspergillus niger, IFO6342; Organism No. 30, bouillon-agar; read-out: Minimum Inhibitory Concentration
Description: as §1

[16] = test system: Streptococcus faecium IFO 3826; assay: Antibacterial activity, agar-dilution MIC, organism No. 27; conditions: Enterococcus faecium, IFO3826; Organism No. 27, bouillon-agar; read-out: Minimum Inhibitory Concentration
Description: as §1

[17] = test system: Salmonella typhimurium IID 971; assay: Antibacterial activity, agar-dilution MIC, organism No. 8; conditions: Salmonella enterica; Organism No. 8, bouillon-agar; read-out: Minimum Inhibitory Concentration
Description: as §1

[18] = test system: Candida albicans IAM 4905; assay: Antifungal activity, agar-dilution MIC, organism No. 29; conditions: Candida albicans, IAM4905; Organism No. 29, bouillon-agar; read-out: Minimum Inhibitory Concentration
Description: as §1

[19] = test system: Bacillus subtilis ATCC 6633; assay: Antibacterial activity, agar-dilution MIC, organism No. 14; conditions: Bacillus subtilis, ATCC6633; Organism No. 14, bouillon-agar; read-out: Minimum Inhibitory Concentration
Description: as §1

[20] = test system: Salmonella shottmuelleri 8006; assay: Antibacterial activity, agar-dilution MIC, organism No. 11; conditions: Salmonella, 8006; Organism No. 11, bouillon-agar; read-out: Minimum Inhibitory Concentration
Description: as §1

[21] = test system: Escherichia coli NIHJ-JC-2; assay: Antibacterial activity, agar-dilution MIC, organism No. 5; conditions: Escherichia coli, NIHJJC2; Organism No. 5, bouillon-agar; read-out: Minimum Inhibitory Concentration
Description: as §1

[22] = test system: Escherichia coli K12 C600 IAM 1264; assay: Antibacterial activity, agar-dilution MIC, organism No. 6; conditions: Escherichia coli, IAM1264; Organism No. 6, bouillon-agar; read-out: Minimum Inhibitory Concentration
Description: as §1

[23] = test system: Salmonella typhi 901; assay: Antibacterial activity, agar-dilution MIC, organism No. 9; conditions: Salmonella enterica, TYPHI, read-out: Minimum Inhibitory Concentration
Description: as §1

[24] = test system: Proteus vulgaris HX-19; assay: Antibacterial activity, agar-dilution MIC, organism No. 21; conditions: Proteus vulgaris, HX19; Organism No. 21, bouillon-agar; read-out: Minimum Inhibitory Concentration
Description: as §1

[25] = test system: Proteus mirabilis IFO 3849; assay: Antibacterial activity, agar-dilution MIC, organism No. 19; conditions: Proteus mirabilis, IFO3849; Organism No. 19, bouillon-agar; read-out: Minimum Inhibitory Concentration
Description: as §1

[26] = test system: Pseudomonas aeruginosa IFO 3445; assay: Antibacterial activity, agar-dilution MIC, organism No. 15; conditions: Pseudomonas aeruginosa, IFO3445; Organism No. 15, bouillon-agar; read-out: Minimum Inhibitory Concentration
Description: as §1

[27] = test system: Staphylococcus aureus MS 353; assay: Antibacterial activity, agar-dilution MIC, organism No. 3; conditions: Staphylococcus aureus, MS353; Organism No. 3, bouillon-agar; read-out: Minimum Inhibitory Concentration
Description: as §1

[28] = test system: Streptococcus pyogenes Cook; assay: Antibacterial activity, agar-dilution MIC, organism No. 4; conditions: Streptococcus pyogenes; Organism No. 4, bouillon-agar; read-out: Minimum Inhibitory Concentration
Description: as §1

[29] = test system: Mycoplasma pneumoniae IID817; assay: Antimycoplasmal activity, MIC by phenol red colour change, organism No. 28; conditions: Mycoplasma, IID817; Organism No. 28, PPLO broth + 1% glucose, 37° C.; read-out: Minimum Inhibitory Concentration (MIC)
Procedure: Mycoplasma pneumoniae IID817 was used as the test microorganism in a culture medium prepared by adding 1% of glucose to "PPLO broth (manufactured by Difco Co.) liquid culture medium" at 37° C. with phenol red as an indicator, thereby culturing the test microorganism.

Structure (SMILES) | MIC [1] [µg/mL] | MIC [2] [µg/mL] | MIC [3] [µg/mL] | MIC [4] [µg/mL] | MIC [5] [µg/mL] | MIC [6] [µg/mL] | MIC [7] [µg/mL] | MIC [8] [µg/mL] | MIC [9] [µg/mL] | MIC [10] [µg/mL] | MIC [11] [µg/mL] | MIC [12] [µg/mL] | MIC [13] [µg/mL] | MIC [14] [µg/mL] | MIC [15] [µg/mL] | MIC [17] [µg/mL] | MIC [18] [µg/mL] | MIC [19] [µg/mL] | MIC [20] [µg/mL] | MIC [21] [µg/mL] | other results
[C-]#[N+]C12CC3(/C=C/C(=O)NCc4ccccc4)OC3C1O2 (stereo not drawn) [Compound No. 24] | > 100 | 1.56 (≈ 5.53 µM) | 0.78 (≈ 2.76 µM) | 3.13 (≈ 11.1 µM) | > 100 | 0.78 (≈ 2.76 µM) | > 100 | 1.56 (≈ 5.53 µM) | < 0.05 | 1.56 (≈ 5.53 µM) | > 100 | 1.56 (≈ 5.53 µM) | 6.25 (≈ 22.1 µM) | 1.56 (≈ 5.53 µM) | 1.56 (≈ 5.53 µM) | 6.25 (≈ 22.1 µM) | 0.2 (≈ 0.708 µM) | 12.5 (≈ 44.3 µM) | 0.78 (≈ 2.76 µM) | 12.5 (≈ 44.3 µM) | MIC [16]: 1.56 µg/mL (≈ 5.53 µM); MIC [22]: 6.25 µg/mL (≈ 22.1 µM); MIC [23]: 3.13 µg/mL (≈ 11.1 µM); MIC [24]: < 0.05 µg/mL; MIC [25]: 12.5 µg/mL (≈ 44.3 µM); MIC [26]: > 100 µg/mL; MIC [27]: 0.78 µg/mL (≈ 2.76 µM); MIC [28]: 6.25 µg/mL (≈ 22.1 µM); MIC [29]: < 0.2 µg/mL
[C-]#[N+]C12CC3(/C=C/C(=O)Nc4ccccc4)OC3C1O2 (stereo not drawn) [Compound No. 36] | 200 (≈ 746 µM) | 0.39 (≈ 1.45 µM) | 0.78 (≈ 2.91 µM) | 3.13 (≈ 11.7 µM) | > 200 | 0.39 (≈ 1.45 µM) | > 200 | 0.78 (≈ 2.91 µM) | < 0.05 | 0.39 (≈ 1.45 µM) | > 200 | 0.39 (≈ 1.45 µM) | 0.2 (≈ 0.746 µM) | 0.78 (≈ 2.91 µM) | 1.56 (≈ 5.81 µM) | 12.5 (≈ 46.6 µM) | 0.39 (≈ 1.45 µM) | 12.5 (≈ 46.6 µM) | < 0.05 | 12.5 (≈ 46.6 µM) | MIC [22]: 6.25 µg/mL (≈ 23.3 µM); MIC [23]: 3.13 µg/mL (≈ 11.7 µM); MIC [24]: < 0.05 µg/mL; MIC [25]: 12.5 µg/mL (≈ 46.6 µM); MIC [26]: > 200 µg/mL; MIC [27]: 0.39 µg/mL (≈ 1.45 µM); MIC [28]: 1.56 µg/mL (≈ 5.81 µM); MIC [29]: < 0.2 µg/mL
